Data reported in BigSolDB 2.1.

CCC[C@@H]1C[C@@H](C(=O)N[C@@H]([C@H]2O[C@H](SC)[C@H](O)[C@H]3OC(C)(C)O[C@H]32)[C@H](C)Cl)N(C)C1
solubility (mole fraction)
Conditions	273.15 K	278.15 K	283.15 K	288.15 K	293.15 K	298.15 K	303.15 K	308.15 K	313.15 K
in acetone	0.0112	0.0132	0.0164	0.0195	0.024	0.0283	0.0348	0.0425	0.0502
in acetonitrile	0.0032	0.004	0.005	0.0063	0.0078	0.0098	0.0123	0.0153	0.0189
in ethanol	0.0146	0.0179	0.0208	0.0243	0.0292	0.0352	0.0423	0.0506	0.0594
in ethyl acetate	0.0075	0.0093	0.0114	0.0143	0.0175	0.0215	0.026	0.0319	0.0388
in isobutanol	0.0139	0.0175	0.022	0.0274	0.0334	0.0409	0.0491	0.0584	0.0696
in isopropanol	0.0102	0.0124	0.0149	0.018	0.022	0.0266	0.0324	0.0393	0.0468
in methanol	0.0212	0.0255	0.0306	0.0351	0.0408	0.0481	0.0554	0.0651	0.0746
in methyl acetate	0.0087	0.0102	0.0132	0.0162	0.0198	0.024	0.0293	0.0355	0.042
in n-butanol	0.0166	0.0213	0.0272	0.0325	0.0391	0.0478	0.0571	0.0672	0.0794
in n-propanol	0.015	0.0189	0.0238	0.0294	0.0363	0.0428	0.0529	0.0637	0.0751
in n-propyl acetate	0.0065	0.008	0.0106	0.0124	0.0152	0.0183	0.0223	0.0283	0.0347
in sec-butanol	0.0229	0.0282	0.0344	0.0413	0.0507	0.0597	0.0709	0.0813	0.0947
